Measurements published in PubChem BioAssay (NCI).
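Cells were grown in 96-well plates and exposed to each compound for 48 hours at five concentrations; endpoints were interpolated linearly between bracketing concentrations, or set to the highest concentration if not reached. At the GI50, growth is halved. At the TGI there is no net growth.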

Columns and labels:
Assay in all cases: inhibition of tumour cell growth, NCI panel, 48 h
[1] = tested on: XF 498 CNS
[2] = tested on: LXFL 529 NSCLC
[3] = tested on: DMS 273 small cell lung
[4] = tested on: M19-MEL melanoma
[5] = tested on: HOP-18 NSCLC
[6] = tested on: DMS 114 small cell lung
[7] = tested on: RXF-631 renal
[8] = tested on: SNB-78 CNS
[9] = tested on: MDA-N

| Compound | TGI [1] [µM] | TGI [2] [µM] | TGI [3] [µM] | TGI [4] [µM] | TGI [5] [µM] | TGI [6] [µM] | TGI [7] [µM] | TGI [8] [µM] | other results |
| --- | --- | --- | --- | --- | --- | --- | --- | --- | --- |
| O=S(=O)(/C=C/CS(=O)(=O)c1ccccc1)c1ccccc1 | 62.6 | > 100 | > 100 | > 100 | > 100 | 52 | 52.8 | 89.9 |  |
| CC(=O)O[C@H]1CCC2[C@@H]3CCC4c5nonc5CC[C@]4(C)C3CC[C@@]21C (stereo not given in full) |  | > 10 | > 10 | > 100 | > 10 | > 100 |  | > 100 | GI50 [4]: > 100 µM; GI50 [6]: > 100 µM; GI50 [8]: > 100 µM |
| COc1ccc2nc3cc(Cl)ccc3c(SCC(=O)Nc3ccccc3-c3ccccc3NC(=O)CSc3c4ccc(Cl)cc4nc4ccc(OC)cc34)c2c1 | > 100 | > 100 | > 100 | > 100 | > 100 | > 100 |  | > 100 |  |
| Oc1c(Cl)c(Cl)c(O)c2c1CCCC2 |  |  |  |  |  |  |  |  | TGI [9]: 31.1 µM |
| CCCN(CCC)C(=O)C(=O)c1c(N)[nH]n(-c2ccccc2)c1=O | > 100 | > 100 | > 100 | > 100 | > 100 | > 100 | > 100 | > 100 |  |
| O=C1/C(=N\O)S(=O)(=O)c2ccccc21 |  | > 100 | > 100 | > 100 | > 100 | > 100 | > 100 | > 100 |  |
| NC(=O)NC12CC3CC(CC(F)(C3)C1)C2 | > 100 | > 100 | > 100 | > 100 |  | > 100 | > 100 | > 100 |  |
| O=[N+]([O-])c1ccc(N2CCC(CCCC3CCN(c4ccc([N+](=O)[O-])cc4[N+](=O)[O-])CC3)CC2)c([N+](=O)[O-])c1 |  |  |  |  |  |  |  |  | TGI [9]: 30.1 µM |
| O=c1c(O)c(-c2ccc(O)c(O)c2)oc2cc(O)cc(O)c12 | > 100 | > 100 | > 100 | > 100 | > 100 | > 100 | > 100 | > 100 |  |
| CC(C)(c1ccccc1)c1ccc(Oc2ccc(C#N)c(C#N)c2)cc1 |  | > 100 |  | > 100 |  | > 100 | > 100 |  | GI50 [7]: > 100 µM |
| O=C(O)C(CS)NCc1c2ccccc2nc2ccccc12 (stereo not given) | 53.7 | > 100 | 91.3 | 89.4 |  |  | > 100 |  |  |
| O=[N+]([O-])c1cc(Cl)cnc1Br |  |  |  |  |  |  |  |  | TGI [9]: 12.4 µM |
| COC1=C(C)C(=O)c2c(cc3c(c2O)C(C)(CCC=C(C)C)C(C)O3)C1=O (stereo not given) | > 100 | > 100 | > 86.4 | 30.1 | > 78.7 | > 100 |  | > 100 |  |
| CNC(=O)OCc1c2ccncc2c(C)c2c1[nH]c1ccc(OC)cc12 | > 100 | 0.37 | > 100 | 1.68 | 0.738 | 1.32 | > 100 | 0.681 |  |
| COC(=O)C(CC1=C(O)Nc2ccccc2N1)/C(=N/NC(N)=O)C(=O)Nc1ccccc1C (stereo not given) |  | > 100 | 36.9 | > 100 | > 100 | 26.5 |  | > 100 |  |
| CN1CCc2[nH]nc(-c3n[nH]c4c3CN(C)CC4)c2C1 |  |  |  |  |  |  |  |  | TGI [9]: > 100 µM |
| COc1cccc(NC(=O)CC(=O)N2N=C(N3c4ccccc4Sc4ccccc43)CC2c2ccccc2)c1 (stereo not given) | > 100 | > 100 |  | > 100 | 62.2 | > 100 |  | > 100 |  |
| CCc1ccccc1NC(=O)/C(N=O)=C(/C)O | > 100 | > 100 | > 100 | > 100 | > 100 | > 100 | > 100 | > 100 |  |
| C[CH2][Sn]([CH2]C)([O]C(=O)c1ccccc1F)[O][Sn]([CH2]C)([CH2]C)[O]C(=O)c1ccccc1F | 29.9 | 22.1 | > 100 | > 100 | 51.6 | 30 |  | 46.7 | GI50 [1]: 16.1 µM; GI50 [2]: 9.79 µM; GI50 [3]: > 62.6 µM; GI50 [4]: 28.6 µM; GI50 [5]: 22.7 µM; GI50 [6]: 15.8 µM; GI50 [8]: 18.7 µM |
| OCCn1cnc2c(SCc3ccccc3)ncnc21 |  |  |  |  |  |  |  |  | TGI [9]: > 100 µM |
| COc1ccc(CC2(Cc3ccc(OC)cc3)CCOC2=O)cc1 | 26.1 | > 100 |  | > 100 |  | > 100 |  |  |  |
| CCc1cccc(C)c1NC(=O)C1=C(C)NC(C)=C(C(=O)Nc2c(C)cccc2CC)C1c1ccc2c(c1)OCO2 | 31 | 39.9 |  | 45.6 |  | 38.7 | 54 | > 100 |  |
| NCCN.O=C([O-])CN1CCOCC1.[OH-].[Pt+4] |  |  |  |  |  |  |  |  | GI50 [9]: > 100 µM; TGI [9]: > 100 µM |
| O=C1C(c2cnc3ccccc3n2)=C(O)c2ccccc21 |  | > 100 | > 100 | > 100 |  | > 100 | > 100 | > 100 | TGI [9]: > 100 µM |
| COc1cc2c(cc1OC)[C@@H](Nc1ccc(F)cc1)C1COC(=O)[C@@H]1C2c1cc(OC)c(O)c(OC)c1 (stereo not given in full) | > 24.7 | > 100 | 8.41 | > 100 | > 100 | 10.4 | > 82.7 | 97.5 |  |
| O=C(NC(=Nc1ccccc1)SCCSC(=Nc1ccccc1)NC(=O)c1cccs1)c1cccs1 | > 100 | > 100 | > 100 | > 100 |  | > 100 |  |  |  |
| C[C@]12CCC(=O)CC1CCCC2=O (stereo not given in full) | > 100 | > 100 | > 100 | > 100 |  | > 100 | > 100 | > 100 |  |
| COc1ccc(C2=C(c3ccc(OC)c(OC)c3)C(=O)N3CCCC3C2)cc1 (stereo not given) |  |  |  |  |  |  |  |  | GI50 [9]: 44.6 µM; TGI [9]: > 100 µM |
| CCN(CC)c1oc(N(CC)CC)c(C(=O)Nc2ccccn2)c(=O)c1C(C)=O | > 100 | > 100 | > 100 | > 100 |  | > 100 |  | > 100 |  |
